Measured values: article PMC4004252 (Journal of the American Chemical Society, 2014)
Each block holds one compound with its values, some of them ahead of it.

Experiments:
ctDNA = ctDNA absorption spectroscopy titration of ethidium bromide; type: binding, calf; conditions: value for EB in main text
Top1 [1] = target: T1, Top1 (Homo sapiens, UniProt P11387); type: biochemical
T1 sequence (P11387 1-765): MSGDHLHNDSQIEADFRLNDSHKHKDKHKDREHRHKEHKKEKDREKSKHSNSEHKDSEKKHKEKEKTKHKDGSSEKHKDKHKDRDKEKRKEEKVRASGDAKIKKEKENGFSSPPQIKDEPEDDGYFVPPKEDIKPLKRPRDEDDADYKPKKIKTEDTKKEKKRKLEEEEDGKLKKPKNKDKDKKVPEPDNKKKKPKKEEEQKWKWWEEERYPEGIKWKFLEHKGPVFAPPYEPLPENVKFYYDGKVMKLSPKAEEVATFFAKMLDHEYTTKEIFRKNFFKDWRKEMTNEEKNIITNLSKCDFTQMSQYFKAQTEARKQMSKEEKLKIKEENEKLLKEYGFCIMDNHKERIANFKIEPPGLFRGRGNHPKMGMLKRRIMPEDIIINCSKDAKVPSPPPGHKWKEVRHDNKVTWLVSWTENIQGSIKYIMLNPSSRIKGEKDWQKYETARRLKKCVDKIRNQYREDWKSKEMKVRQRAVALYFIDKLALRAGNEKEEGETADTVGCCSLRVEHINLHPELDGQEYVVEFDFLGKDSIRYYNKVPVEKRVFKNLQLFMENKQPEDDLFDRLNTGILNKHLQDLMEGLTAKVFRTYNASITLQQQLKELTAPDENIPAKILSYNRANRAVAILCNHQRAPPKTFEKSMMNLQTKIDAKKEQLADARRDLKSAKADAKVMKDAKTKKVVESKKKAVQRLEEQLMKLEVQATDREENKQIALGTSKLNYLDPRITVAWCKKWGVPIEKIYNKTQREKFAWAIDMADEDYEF

Top1 [2] = target: T1, Top1; test: Standard Top1 scDNA relaxation assay; type: biochemical
[3] = tested on: relaxed pHOT1 plasmid DNA; test: DNA unwinding assay, relaxed pHOT1 as substrate; type: biochemical; conditions: 10 units Top1, 37 °C

Compound: CC[n+]1c(-c2ccccc2)c2cc(N)ccc2c2ccc(N)cc21 [EB, ethidium bromide]
KA, ctDNA affinity constant (ctDNA): 5(1) × 10^6 M^–1 bp

Compound: O=C1c2c(O)ccc(O)c2C(=O)c2c(NCCNCCO)ccc(NCCNCCO)c21 [MTX, mitoxantrone]
dose at which switch to catalytic inhibition of Top1 occurs (Top1 [1]): 1 to 10 µM | PicoGreen relative fluorescence readout (Top1 [1]; doses of 0.1 and 1 μM): positive

dose giving complete inhibition of the enzyme (Top1 [2]): 50 µM
Compound: COc1cc(NS(C)(=O)=O)ccc1Nc1c2ccccc2nc2ccccc12 [m-AMSA, 4′-(9-acridinylamino)methanesulfon-m-anisidide]
concentration giving the Gaussian distribution of DNA topoisomers [3]: 50 µM
